Test results as given in US20070270421A1, “Novel pyridine Derivative and Pyrimidine Derivative (1)” (priority 2004, published 2007).

Assays:
[1] = test system: Human gastric cancer cells (MKN-45); experiment: Inhibitory activity against the proliferation of human gastric cancer cells (MKN-45); assay type: cell-based; details: 72 h, MKN-45, 1% FBS RPMI1640, 3 days, Cell Counting Kit-8, read-out: IC50 (concentration necessary to inhibit the cell proliferation by 50%)
Experimental: Human gastric cancer cells (MKN-45) were suspended in a 1% FBS-containing RPMI1640 medium (purchased from Sigma). The cell suspension (1×10^4 cells/ml) was added in a 96-well plate for cell culture (purchased from NUNC, Production No. 167008) at 0.1 ml/well, and then cultured in a 5% CO2 incubator (37° C.) overnight. After the culture, each well was supplied with 0.1 ml of a test substance diluted with a 1% FBS-containing RPMI1640 medium, followed by culturing in a 5% CO2 incubator (37° C.) for 3 days. After the culture, each well was supplied with 10 μl of Cell Counting Kit-8 (purchased from DOJINDO, Production No. 343-07623), followed by incubation in a 5% CO2 incubator (37° C.) for about 1.5 hrs. After the incubation, using the Plate Reader MTP-500 (Corona Electric), the absorbance of each well was determined at a measurement wavelength of 450 nm and a reference wavelength of 660 nm. The ratio (%) of absorbance of each well supplied with a test substance to absorbance of the well supplied with no test substance was calculated, and the ratio was used to calculate the concentration (IC50) of the test substance necessary to inhibit the cell proliferation by 50%.

[2] = target: T1, HGFR autophosphorylation (Homo sapiens, UniProt P08581); experiment: Inhibitory activity against the HGFR autophosphorylation using ELISA; assay type: cell-based; details: MKN-45 cells, 1 hr treatment, read-out: IC50 (concentration necessary to inhibit HGFR autophosphorylation activity by 50%)
T1 construct: endogenous in cells; host or cells: MKN-45 human gastric cancer cells
Experimental: Human gastric cancer cells (MKN-45) were suspended in a 1% FBS-containing RPMI1640 medium (purchased from Sigma). The cell suspension (1×10^5 cells/ml) was put in a 96-well plate for cell culture (purchased from NUNC, Production No. 167008) at 0.1 ml/well, and then cultured in a 5% CO2 incubator (37° C.) overnight. After the culture, from each well was removed the supernatant solution, followed by adding 0.05 ml of a 1% FBS-containing RPMI1640 medium. Then, the well was supplied with 0.05 ml of the test substance dissolved in dimethyl sulfoxide (diluted with a 1% FBS-containing RPMI1640 medium), followed by culturing in a 5% CO2 incubator (37° C.) for 1 hr. From each well was removed the supernatant, and each well was washed with 150 μl of PBS, followed by adding 100 μl of a lysis buffer (50 mM Hepes (pH 7.4), 150 mM NaCl, 10% (v/v) glycerol, 1% Triton X-100, 1.5 mM MgCl2, 1 mM EDTA (pH 8.0), 100 mM NaF, 1 mM PMSF, 10 μg/ml Aprotinin, 50 μg/ml Leupeptin, 1 μg/ml Pepstatin A and 1 mM Na3VO4). The plate was shaken at 4° C. for 1 hr to prepare the cell extract.
To a 96-well plate for ELISA (purchased from COSTAR, Production No. 3369) was added 50 μl of 60 mM bicarbonate buffer (pH 9.6) containing 50 μg/ml of an anti-phosphotyrosine antibody (PY20, purchased from Transduction Laboratory, Production No. P-11120). The plate was incubated at 4° C. overnight.
Each well of the plate prepared in 2. was washed three times with 200 μl of PBS, and supplied with 150 μl of 3% BSA/PBS, followed by incubating at room temperature for 2 hrs. Each well was washed three times with 200 μl of PBS, and supplied with 50 μl of the above cell extract, followed by incubating at 4° C. overnight. After the incubation, each well was washed three times with 250 μl of a washing solution (0.1% BSA, 20 mM Tris-HCl (pH 7.6), 137 mM NaCl, and 0.05% Tween-20), and supplied with 70 μl of anti-HGFR antibody (h-Met(C-12), purchased from Santa Cruz, Production No. sc-10) 2,000-fold diluted with a reaction solution (1% BSA, 20 mM Tris-HCl (pH 7.6), 137 mM NaCl and 0.05% Tween-20), followed by incubating at room temperature for 1 hr. The well was washed three times with 250 μl of the washing solution, and supplied with 70 μl of peroxidase-labelled anti-rabbit IgG antibody (purchased from Cell Signaling, Production No. 7074) 2,000-fold diluted with the reaction solution, followed by incubating at room temperature for 1 hr. Each well was washed three times with 250 μl of the washing solution, and supplied with 70 μl of TMB Membrane Peroxidase Substrate (purchased from Funakoshi, Production No. 50-5077-03), followed by incubating at room temperature for 10 min. Each well was supplied with 70 μl of 1 M phosphoric acid, and using the Plate Reader MTP-500 (Corona Electric), the absorbance of the well was instantly determined at a measurement wavelength of 450 nm. While defining the absorbance of a well supplied with the cell extract having no test substance as 100% HGFR autophosphorylation activity, and the absorbance of a well supplied with 50 μl of the lysis buffer as 0% HGFR autophosphorylation activity, the HGFR autophosphorylation activity (%) was calculated for each well. The concentration of the test substance was changed by several levels to calculate HGFR autophosphorylation activities (%) in respective cases, and to calculate the concentration (IC50) of the test substance necessary to inhibit HGFR autophosphorylation activity by 50%.

T1 sequence (P08581 25-1390): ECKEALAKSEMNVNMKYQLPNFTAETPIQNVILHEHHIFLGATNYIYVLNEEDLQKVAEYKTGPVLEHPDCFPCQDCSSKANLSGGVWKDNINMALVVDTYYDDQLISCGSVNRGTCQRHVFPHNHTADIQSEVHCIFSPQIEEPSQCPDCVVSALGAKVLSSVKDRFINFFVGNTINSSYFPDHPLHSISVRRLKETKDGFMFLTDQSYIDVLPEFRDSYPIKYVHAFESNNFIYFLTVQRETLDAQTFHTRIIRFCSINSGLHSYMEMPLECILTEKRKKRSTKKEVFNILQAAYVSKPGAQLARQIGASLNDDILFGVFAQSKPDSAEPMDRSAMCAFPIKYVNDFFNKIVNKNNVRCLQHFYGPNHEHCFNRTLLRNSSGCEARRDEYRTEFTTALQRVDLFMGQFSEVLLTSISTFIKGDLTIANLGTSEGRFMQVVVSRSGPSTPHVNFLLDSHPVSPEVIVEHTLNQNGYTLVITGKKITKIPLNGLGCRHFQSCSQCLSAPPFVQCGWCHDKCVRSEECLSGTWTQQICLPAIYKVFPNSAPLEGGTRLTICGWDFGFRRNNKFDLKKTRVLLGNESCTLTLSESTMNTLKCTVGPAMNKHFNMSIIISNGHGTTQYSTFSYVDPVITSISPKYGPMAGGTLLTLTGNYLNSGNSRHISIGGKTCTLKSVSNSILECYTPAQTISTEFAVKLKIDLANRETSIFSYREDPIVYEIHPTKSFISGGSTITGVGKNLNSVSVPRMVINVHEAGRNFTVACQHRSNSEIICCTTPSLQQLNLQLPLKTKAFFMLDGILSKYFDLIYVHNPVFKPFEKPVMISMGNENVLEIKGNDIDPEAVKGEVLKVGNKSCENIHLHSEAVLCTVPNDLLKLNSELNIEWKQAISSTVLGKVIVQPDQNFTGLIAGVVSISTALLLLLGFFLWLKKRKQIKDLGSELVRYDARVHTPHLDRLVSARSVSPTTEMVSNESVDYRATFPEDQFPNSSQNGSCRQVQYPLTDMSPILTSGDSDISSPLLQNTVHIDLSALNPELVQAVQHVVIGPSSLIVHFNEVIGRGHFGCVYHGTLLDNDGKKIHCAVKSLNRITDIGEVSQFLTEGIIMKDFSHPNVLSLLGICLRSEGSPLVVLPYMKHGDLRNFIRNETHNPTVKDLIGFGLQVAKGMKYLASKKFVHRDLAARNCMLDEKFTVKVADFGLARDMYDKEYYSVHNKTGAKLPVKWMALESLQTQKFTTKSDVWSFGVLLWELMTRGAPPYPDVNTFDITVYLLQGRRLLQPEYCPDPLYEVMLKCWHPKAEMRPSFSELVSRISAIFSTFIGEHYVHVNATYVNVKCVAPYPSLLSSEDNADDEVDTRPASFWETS

| IC50 [1] | IC50 [2] | Structure (SMILES) |
| --- | --- | --- |
| 0.035 µM | 0.059 µM | O=C(Cc1ccccc1)NC(=O)Nc1ccc(Oc2ccnc(NC(=O)N3CCCC3)c2)c(F)c1 [Example 43, 4-{2-Fluoro-4-[3-(2-phenylacetyl)ureido]phenoxy}-2-[(pyrrolidin-1-yl)carbonylamino]pyridine] |
| 0.057 µM | 0.26 µM | O=C(Cc1ccccc1)NC(=O)Nc1ccc(Oc2ccnc(NC(=O)N3CCOCC3)c2)c(F)c1 [Example 48, Morpholine-4-carboxylic acid {4-[2-fluoro-4-(3-phenylacetylureido)phenoxy]pyridin-2-yl}amide] |
| 0.063 µM | 0.34 µM | CN1CCC(N(C)C(=O)Nc2cc(Oc3ccc(NC(=O)NC(=O)Cc4ccccc4)cc3F)ccn2)CC1 [Example 52, 3-{4-[2-Fluoro-4-(3-phenylacetylureido)phenoxy]pyridin-2-yl]-1-methyl-1-(1-methylpiperidin-4-yl)urea] |
| 0.064 µM | 0.35 µM | CN(C)C(=O)Nc1cc(Oc2ccc(NC(=O)NC(=O)Cc3ccccc3)cc2F)ccn1 [Example 44, 2-[(Dimethylamino)carbonylamino]-4-{2-fluoro-4-[3-(2-phenylacetyl)ureido]phenoxy}pyridine] |
| 0.18 µM | 0.043 µM | O=C(Cc1ccccc1)NC(=S)Nc1ccc(Oc2ccnc(NC(=O)N3CCOCC3)c2)c(Cl)c1 [Example 11, 4-{2-Chloro-4-[3-(2-phenylacetyl)thioureido]phenoxy}-2-[(morpholin-4-yl)carbonylamino]pyridine] |
| 0.048 µM | 0.013 µM | O=C(Cc1ccccc1)NC(=S)Nc1ccc(Oc2ccnc(NC(=O)N3CCC(O)CC3)c2)c(F)c1 [Example 15, 4-{2-Fluoro-4-[3-(2-phenylacetyl)thioureido]phenoxy}-2-[(4-hydroxypiperidin-1-yl)carbonylamino]pyridine] |
| 0.14 µM | 0.13 µM | O=C(CC(=O)Nc1ccc(Oc2ccnc(NC(=O)N3CCCC3)c2)c(F)c1)Nc1ccc(F)cc1 [Example 56, N-(4-Fluorophenyl)-N′-(3-fluoro-4-{2-[(pyrrolidine-1-carbonyl)amino]pyridin-4-yloxy}phenyl)malonamide] |
| 0.023 µM | 0.0068 µM | O=C(Cc1ccc(F)cc1)NC(=S)Nc1ccc(Oc2ccnc(NC(=O)N3CCCC3)c2)c(F)c1 [Example 13, 4-(2-Fluoro-4-{3-[2-(4-fluorophenyl)acetyl]thioureido}phenoxy)-2-[(pyrrolidin-1-yl)carbonylamino]pyridine] |
| 0.16 µM | 0.28 µM | CN1CCN(C(=O)Nc2cc(Oc3ccc(NC(=O)NC(=O)Cc4ccccc4)cc3F)ccn2)CC1 [Example 50, 4-Methylpiperazine-1-carboxylic acid {4-[2-fluoro-4-(3-phenylacetylureido)phenoxy]pyridin-2-yl}amide] |

Further lines, the molecule ahead of its results:

| Structure (SMILES) | IC50 [1] | IC50 [2] |
| --- | --- | --- |
| O=C(CC(=O)Nc1ccc(Oc2ccnc(NC(=O)N3CCC(N4CCCC4)CC3)c2)cc1F)Nc1ccc(F)cc1 [Example 82, N-(4-Fluorophenyl)-N′-[2-fluoro-4-(2-{[4-(pyrrolidin-1-yl)piperidine-1-carbonyl]amino}pyridin-4-yloxy)phenyl]malonamide] | 0.12 µM | 0.088 µM |
| CN(C)C(=O)Nc1cc(Oc2ccc(NC(=S)NC(=O)CC3CC4CCC3C4)cc2F)ccn1 (stereo not shown) [Example 17, 2-[(Dimethylamino)carbonylamino]-4-{2-fluoro-4-[3-(2-norbornaneacetylthio)ureido]phenoxy}pyridine] | 0.57 µM | 0.12 µM |
| O=C(CC(=O)Nc1ccc(Oc2ccnc(NC(=O)C3CC3)c2)cc1F)Nc1ccc(F)cc1 [Example 77, N-(4-Fluorophenyl)-N′-{4-[2-(cyclopropanecarbonylamino)pyridin-4-yloxy]-2-fluorophenyl}malonamide] | 0.11 µM | 0.11 µM |
| Cc1cc(NC(=S)NC(=O)Cc2ccc(F)cc2)ccc1Oc1ccnc(NC(=O)N2CCOCC2)c1 [Example 24, Morpholine-4-carboxylic acid (4-{2-methyl-4-[3-(4-fluorophenyl)acetylthioureido]phenoxy}pyridin-2-yl)amide] | 0.18 µM | 0.069 µM |
| CN1CCC(N(C)C(=O)Nc2cc(Oc3ccc(NC(=O)CC(=O)Nc4ccc(F)cc4)cc3F)ccn2)CC1 [Example 89, N-(3-Fluoro-4-{2-[3-methyl-3-(1-methylpiperidin-4-yl)ureido]pyridin-4-yloxy}phenyl)-N′-(4-fluorophenyl)malonamide] | 0.086 µM | 0.049 µM |
| O=C(Cc1ccc(F)cc1)NC(=S)Nc1ccc(Oc2cc(NC(=O)N3CCCC3)ncn2)c(F)c1 [Example 3, Pyrrolidine-1-carboxylic acid [6-(2-fluoro-4-{3-[2-(4-fluorophenyl)acetyl]thioureido}phenoxy)pyrimidin-4-yl]amide] | 0.04 µM | 0.02 µM |
| Cc1cc(Oc2ccnc(NC(=O)N3CCC(N4CCCC4)CC3)c2)ccc1NC(=O)CC(=O)Nc1ccc(F)cc1 [Example 85, N-(4-Fluorophenyl)-N′-[2-methyl-4-(2-{[(4-pyrrolidin-1-yl)piperidine-1-carbonyl]amino}pyridin-4-yloxy)phenyl]malonamide] | 0.63 µM | 0.59 µM |
| CN1CCC(N(C)C(=O)Nc2cc(Oc3ccc(NC(=S)NC(=O)Cc4ccccc4)cc3F)ccn2)CC1 [Example 28, 3-{4-[2-Fluoro-4-(3-phenylacetylthioureido)phenoxy]pyridin-2-yl}-1-methyl-1-(1-methylpiperidin-4-yl)urea] | 0.0058 µM | 0.019 µM |
| CCN(CC)CCCN(C)C(=O)Nc1cc(Oc2ccc(NC(=S)NC(=O)Cc3ccc(F)cc3)cc2F)ccn1 [Example 22, 1-(3-Diethylaminopropyl)-3-[4-(2-fluoro-4-{3-[2-(4-fluorophenyl)acetyl]thioureido}phenoxy)pyridin-2-yl]-1-methylurea] | 0.033 µM | < 0.03 µM |
| CN1CCCN(C(=O)Nc2cc(Oc3ccc(NC(=O)CC(=O)Nc4ccc(F)cc4)c(F)c3)ccn2)CC1 [Example 92, N-(2-Fluoro-4-{2-[(4-methyl-[1,4]diazepane-1-carbonyl)amino]pyridin-4-yloxy}phenyl)-N′-(4-fluorophenyl)malonamide] | 0.57 µM | 0.54 µM |
| O=C(Cc1ccc(F)cc1)NC(=S)Nc1ccc(Oc2ccnc(NC(=O)N3CCCC3)c2)cc1 [Example 9, Pyrrolidine-1-carboxylic acid [4-(4-{3-[2-(4-fluorophenyl)acetyl]thioureido}phenoxy)pyridin-2-yl]amide] | 0.033 µM | 0.02 µM |
